Assay results from patent US8198325B2, “Unsaturated alkyl esters of 5-aminolevulinic acid, their preparation and their use” (Industry Foundation of Chonnam National University, priority 2006, dated 2012).

Columns and labels:
[1] = test system: Malignant melanoma (TMX 13); experiment: Cytotoxicity test (cell survival), MTT assay, TXM 13; format: cell-based; conditions: 24 hours
Description: (§1) 3. Cytotoxicity Test (Cell Survival Test)
(§2) Cytotoxicity was conducted through an MTT assay (Chemicon, Serologicals Corporation, USA) as follows.
(§3) Cells were seeded at a density of 3×10^4 cells/well in 96-well plates (Nunc Do, Denmark).
(§4) When the cells were at a confluence of about 60˜70%, 24 hours after seeding, the media was exchanged for 100 μl of fresh, serum-free media containing various respective concentrations of ALA or ALA-ester, after which the cells were incubated for an additional 24 hours.
(§5) An MTT solution (0.5 mg/mL) was added in an amount of […] to each well, followed by incubation for 4 hours to form formazan crystals. A color-developing solution (isopropanol with 0.04 N HCl) was added in an amount of […] per well to solubilize the formazan crystals.
(§6) The plates were measured for absorbance at 570 nm using an ELISA reader (EMAX, Molecular Device, USA).
(4) Malignant Melanoma (TMX 13)

[2] = test system: human epidermal keratinocyte (HEK), human dermal fibroblast (hF), squamous cell carcinoma (A431), malignant melanoma (TXM 13); experiment: Fluorescence microscopy of PpIX in cell lines (FIG. 5); format: cell-based; conditions: normal and cancer cell lines, fluorescence microscope
Description: 5. Observation Under Fluorescence Microscope
Each cell line and ICR mouse skin tissue were treated with the ALA esters of the present invention, and the regions where PpxIX was expressed were observed under a fluorescence microscope.
The normal cell lines, human epidermal keratinocytes (HEK) and human dermal fibroblasts (hF) and the cancer cell lines squamous cell carcinoma A431 and malignant melanoma TXM13 were treated with […] of the ALA esters of the present invention or ALA, followed by monitoring the fluorescence of the synthesized PpIX under a fluorescence microscope.

[3] = test system: human epithelium keratocyte (HEK), human dermal fibroblast (hF), squamous cell carcinoma (A431), malignant melanoma (TXM13); experiment: Fluorescence spectroscopy of PpIX synthesis in all cell lines (FIG. 2); format: cell-based; conditions: range from 0.01 to 1 mM, 4 hours incubation
Description: (§7) 4. Fluorescence Spectroscopy
(§8) The synthesis of PpIX, induced by ALA and unsaturated alkyl esters of ALA in cells and skin tissues, was quantified using fluorescence spectroscopy.
(§9) The intensity of PpIX was measured on a fluorescence spectrophotometer (Uvikon, model 943) with excitation at 408 nm.
(§10) Each cell line was plated at a density of 2×10^5 cells in a 10 cm^2-dish (Falcon), and when the cells reached a confluent state of 70˜80%, serum-free media containing various concentrations (0.001˜1 mM) of ALA or ALA esters was added to the cells, followed by incubation for 4 hours.
(§11) After being washed once with PBS, the cells were detached with a 50% methanol solution containing 1M […] (HClO4) and scraped off using a Costar cell scraper.
(§12) The cells thus harvested were incubated for 5 min and centrifuged.
(§13) The fluorescence of the supernatant thus obtained was determined using a spectrofluorometer with excitation at 405 nm and emission at 605 nm.
(§14) The results are graphed in FIGS. 1 and 2.

[4] = test system: Human epidermal keratinocyte (HEK); experiment: Cytotoxicity test (cell survival), MTT assay, HEK; format: cell-based; conditions: 24 hours; for MTT absorbance (OD): 570 nm; for Cell survival Avg (%) ± SD (%): Table 3; for activity at 10 µM / activity at 2000 µM / activity at 50 µM / activity at 100 µM / activity at 500 µM / activity at 1000 µM / activity at 5000 µM: Homo sapiens, Table 2, read-out: Cell survival (% of control C, in brackets); for activity at 10 µM: HEK001, 0.01 mM; for activity at 2000 µM: HEK2, 2 mM; for activity at 50 µM / activity at 100 µM / activity at 500 µM / activity at 1000 µM / activity at 5000 µM: Keratinocyte
Description: as §1, §2, §3, §4, §5, §6
(1) Human Epidermal Keratinocyte (HEK)
Cell survival of the human epidermal keratinocytes treated with ALA esters of the present invention and with ALA was compared. The results are summarized in Tables 1 and 2, which are represented in different manners depending on the measurements.

[5] = test system: skin of ICR mice (epidermis, sebaceous gland); experiment: Cell death in skin tissue after ointment and LED irradiation, H&E (FIGS. 9, 10); format: in vivo; conditions: for Sebaceous gland morphology after irradiation: 24 hours after visible light 25 J/cm^2, FIG. 10
Description: Ointments comprising ALA or the ALA esters of the present invention at various concentrations (5˜15%) were applied in a predetermined amount ([…]) to the back of shaved ICR mice.
1 and 4 hours after the application, the back was irradiated with LED visible light (dose 25 J/cm^2).
24, 48 and 72 hours after the irradiation, skin samples were taken from the back of the mice, stained with hematoxylin-eosin (H&E) and observed for cell death.

[6] = test system: Human dermal fibroblast (hF); experiment: Cytotoxicity test (cell survival), MTT assay, hF; format: cell-based; conditions: 24 hours
Description: as §1, §2, §3, §4, §5, §6
(2) Human Dermal Fibroblast (hF)

[7] = test system: all of the cells except for HEK (hF, A431, TXM 13); experiment: Cytotoxicity test (MTT), summary for all of the cells except for HEK; format: cell-based; conditions: text summary of the tables
Description: as §1, §2, §3, §4, §5, §6

Each cell line = experiment: Apoptosis and cell death by Annexin V-FITC/PI flow cytometry after visible light (FIG. 8); format: cell-based
Description: 6. Research into Apoptosis and Cell Death A. Cell Line Each cell line cultured in 6-well plates was treated with ALA or ALA esters of the present invention, irradiated with visible light from an LED, and stained with Annexin V-FITC and PI (Annexin V-FITC Apoptosis detection Kit, BD) before the measurement of apoptosis using flow cytometry (FACSCalibur, BD, USA).

[8] = test system: Squamous cell carcinoma (A431); experiment: Cytotoxicity test (cell survival), MTT assay, A431; format: cell-based; conditions: 24 hours
Description: as §1, §2, §3, §4, §5, §6
(3) Squamous Cell Carcinoma (A431)

A431 cells = experiment: Fluorescence spectroscopy of PpIX synthesis in A431 cells (FIG. 1); format: cell-based; conditions: 4 hours incubation, excitation 405 nm, emission 605 nm
Description: as §7, §8, §9, §10, §11, §12, §13, §14

SMILES: NCC(=O)CCC(=O)O [ALA, 5-Aminolevulinic acid]
- Cell survival Avg ± SD (%) ([1]; TXM 13, 0.01 mM): 100 ± 10.22%
- Cell survival Avg ± SD (%) ([1]; TXM 13, 0.05 mM): 93.12 ± 5.82%
- Cell survival Avg ± SD (%) ([1]; TXM 13, 0.1 mM): 86.66 ± 6.95%
- Cell survival Avg ± SD (%) ([1]; TXM 13, 0.5 mM): 83.75 ± 9.57%
- Cell survival Avg ± SD (%) ([1]; TXM 13, 1 mM): 89.91 ± 6.33%
- Cell survival Avg ± SD (%) ([1]; TXM 13, 2 mM): 93.6 ± 5.13%
- PpIX fluorescence in cytoplasm [2]: can induce the synthesis of PpIX in both normal and cancer cell lines
- PpIX synthesis, dose dependence [3]: increase in a dose-dependent manner
- MTT absorbance (OD) ([4]; 0.01 mM): 3.428 OD
- Cell survival Avg (%) ± SD (%) ([4]; 0.01 mM): 131.83 ± 0.9%
- MTT absorbance (OD) ([4]; 0.05 mM): 3.318 OD
- Cell survival Avg (%) ± SD (%) ([4]; 0.05 mM): 112.32 ± 0.7%
- MTT absorbance (OD) ([4]; 0.1 mM): 3.457 OD
- Cell survival Avg (%) ± SD (%) ([4]; 0.1 mM): 132.21 ± 0.35%
- MTT absorbance (OD) ([4]; 0.5 mM): 3.285 OD
- Cell survival Avg (%) ± SD (%) ([4]; 0.5 mM): 103.43 ± 0.15%
- MTT absorbance (OD) ([4]; 1 mM): 2.802 OD
- Cell survival Avg (%) ± SD (%) ([4]; 1 mM): 100.94 ± 6.16%
- MTT absorbance (OD) ([4]; 2 mM): 2.179 OD
- Cell survival Avg (%) ± SD (%) ([4]; 2 mM): 84.9 ± 5.12%
- MTT absorbance (OD) ([4]; 5 mM): 1.659 OD
- activity at 10 µM [4]: 97.6%
- activity at 2000 µM [4]: 62.1%
- activity at 50 µM ([4]; 0.05 mM): 94.5%
- activity at 100 µM ([4]; 0.1 mM): 98.5%
- activity at 500 µM ([4]; 0.5 mM): 92.8%
- activity at 1000 µM ([4]; 1 mM): 79.7%
- activity at 5000 µM ([4]; 5 mM): 47.2%
- Epidermis histology (H&E) after irradiation ([5]; 24 hours after visible light 25 J/cm^2, FIG. 9A): apoptosis or necrosis of the epidermis
- Sebaceous gland morphology after irradiation [5]: destroyed partially or wholly
- Cell survival Avg (%) ± SD (%) ([6]; 0.01 mM): 109.74 ± 11.55%
- Cell survival Avg (%) ± SD (%) ([6]; 0.05 mM): 125.18 ± 14.08%
- Cell survival Avg (%) ± SD (%) ([6]; 0.1 mM): 125.27 ± 16.1%
- Cell survival Avg (%) ± SD (%) ([6]; 0.5 mM): 95.218 ± 9.47%
- Cell survival Avg (%) ± SD (%) ([6]; 1 mM): 99.89 ± 18.3%
- Cell survival Avg (%) ± SD (%) ([6]; 2 mM): 97.66 ± 9.45%
- Cell survival [7]: ≥ 70%
- Photo-induced apoptosis (Annexin V/PI) (Each cell line; 1 mM, then irradiation 5-20 J/cm^2, FIGS. 8C and D): induced the cells to undergo apoptosis (Annexin V+/PI−) or the late stage of apoptosis (Annexin V+/PI+)
- Cell survival (flow cytometry) (Each cell line; treated but with no irradiation with visible light, FIGS. 8A and B): ≥ 85%
- Cell survival Avg (%) ± SD (%) ([8]; A431, 0.01 mM): 102.99 ± 0.71%
- Cell survival Avg (%) ± SD (%) ([8]; A431, 0.05 mM): 104.98 ± 0.35%
- Cell survival Avg (%) ± SD (%) ([8]; A431, 0.1 mM): 106.79 ± 0.15%
- Cell survival Avg (%) ± SD (%) ([8]; A431, 0.5 mM): 81.6 ± 6.16%
- Cell survival Avg (%) ± SD (%) ([8]; A431, 1 mM): 84.17 ± 5.12%
- Cell survival Avg (%) ± SD (%) ([8]; A431, 2 mM): 82.63 ± 2.44%

SMILES: COC(=O)CCC(=O)CN [ALA-1, 5-Aminolevulinic acid methyl ester, reference compound]
- Cell survival Avg ± SD (%) ([1]; TXM 13, 0.01 mM): 104.69 ± 6.64%
- Cell survival Avg ± SD (%) ([1]; TXM 13, 0.05 mM): 100.34 ± 4.39%
- Cell survival Avg ± SD (%) ([1]; TXM 13, 0.1 mM): 87.37 ± 8.13%
- Cell survival Avg ± SD (%) ([1]; TXM 13, 0.5 mM): 64.59 ± 3.95%
- Cell survival Avg ± SD (%) ([1]; TXM 13, 1 mM): 69.86 ± 8.83%
- Cell survival Avg ± SD (%) ([1]; TXM 13, 2 mM): 69.94 ± 13.42%
- PpIX synthesis compared with ALA (A431 cells): greater PpIX synthesis in A431 cells than did ALA
- MTT absorbance (OD) ([4]; 0.01 mM): 2.952 OD
- Cell survival Avg (%) ± SD (%) ([4]; 0.01 mM): 116.69 ± 1%
- MTT absorbance (OD) ([4]; 0.05 mM): 3.482 OD
- Cell survival Avg (%) ± SD (%) ([4]; 0.05 mM): 94.01 ± 0.71%
- MTT absorbance (OD) ([4]; 0.1 mM): 3.313 OD
- Cell survival Avg (%) ± SD (%) ([4]; 0.1 mM): 125.58 ± 1.05%
- MTT absorbance (OD) ([4]; 0.5 mM): 3.421 OD
- Cell survival Avg (%) ± SD (%) ([4]; 0.5 mM): 88.14 ± 0.95%
- MTT absorbance (OD) ([4]; 1 mM): 3.435 OD
- Cell survival Avg (%) ± SD (%) ([4]; 1 mM): 72.02 ± 3.52%
- MTT absorbance (OD) ([4]; 2 mM): 3.093 OD
- Cell survival Avg (%) ± SD (%) ([4]; 2 mM): 83.69 ± 1.54%
- MTT absorbance (OD) ([4]; 5 mM): 2.398 OD
- activity at 10 µM [4]: 88.8%
- activity at 2000 µM [4]: 93%
- activity at 50 µM ([4]; 0.05 mM): 104%
- activity at 100 µM ([4]; 0.1 mM): 99.6%
- activity at 500 µM ([4]; 0.5 mM): 103%
- activity at 1000 µM ([4]; 1 mM): 103%
- activity at 5000 µM ([4]; 5 mM): 69%
- Sebaceous gland morphology after irradiation [5]: destroyed partially or wholly
- Epidermis histology (H&E) after irradiation ([5]; 48 hours after visible light 25 J/cm^2, FIGS. 9B and 9C): both necrosis and rejuvenation
- Cell survival Avg (%) ± SD (%) ([6]; 0.01 mM): 110.33 ± 15.01%
- Cell survival Avg (%) ± SD (%) ([6]; 0.05 mM): 116.86 ± 17.63%
- Cell survival Avg (%) ± SD (%) ([6]; 0.1 mM): 110.44 ± 17.98%
- Cell survival Avg (%) ± SD (%) ([6]; 0.5 mM): 113 ± 22.58%
- Cell survival Avg (%) ± SD (%) ([6]; 1 mM): 120.48 ± 10.91%
- Cell survival Avg (%) ± SD (%) ([6]; 2 mM): 87.65 ± 14.77%
- Cell survival Avg (%) ± SD (%) ([8]; A431, 0.01 mM): 101.03 ± 0.71%
- Cell survival Avg (%) ± SD (%) ([8]; A431, 0.05 mM): 103.06 ± 1.05%
- Cell survival Avg (%) ± SD (%) ([8]; A431, 0.5 mM): 101.75 ± 3.52%
- Cell survival Avg (%) ± SD (%) ([8]; A431, 1 mM): 101.45 ± 1.54%
- Cell survival Avg (%) ± SD (%) ([8]; A431, 2 mM): 98.4 ± 1.2%
